According to ChEMBL document CHEMBL1208720, “N-Benzylsalicylthioamides as novel compounds with promising antimycotic activity” (2010):
≈ marks a conversion by molar mass, not a printed value.

Key:
Format in all cases: functional
Nakaseomyces glabratus [1] = assay: Antifungal activity against Candida glabrata 20/I after 48 hrs by broth microdilution assay; settings: Nakaseomyces glabratus, 20/I, 48 h
[2] = tested on: Trichophyton mentagrophytes; assay: Antifungal activity against Trichophyton mentagrophytes 445 after 120 hrs by broth microdilution assay; settings: Trichophyton mentagrophytes, 445, 120 h
Candida albicans [3] = assay: Antifungal activity against Candida albicans ATCC 44859 after 48 hrs by broth microdilution assay; settings: Candida albicans, ATCC 44859, 48 h
Pichia kudriavzevii [4] = assay: Antifungal activity against Candida krusei E28 after 24 hrs by broth microdilution assay; settings: Pichia kudriavzevii, E28, 24 h
Lichtheimia corymbifera [5] = assay: Antifungal activity against Absidia corymbifera 272 after 24 hrs by broth microdilution assay; settings: Lichtheimia corymbifera, 272, 24 h
Lichtheimia corymbifera [6] = assay: Antifungal activity against Absidia corymbifera 272 after 48 hrs by broth microdilution assay; settings: Lichtheimia corymbifera, 272, 48 h
Candida tropicalis [7] = assay: Antifungal activity against Candida tropicalis 159 after 24 hrs by broth microdilution assay; settings: Candida tropicalis, 159, 24 h
Candida albicans [8] = assay: Antifungal activity against Candida albicans ATCC 44859 after 24 hrs by broth microdilution assay; settings: Candida albicans, ATCC 44859, 24 h
[9] = tested on: Trichophyton mentagrophytes; assay: Antifungal activity against Trichophyton mentagrophytes 445 after 72 hrs by broth microdilution assay; settings: Trichophyton mentagrophytes, 445, 72 h
Candida tropicalis [10] = assay: Antifungal activity against Candida tropicalis 159 after 48 hrs by broth microdilution assay; settings: Candida tropicalis, 159, 48 h
Pichia kudriavzevii [11] = assay: Antifungal activity against Candida krusei E28 after 48 hrs by broth microdilution assay; settings: Pichia kudriavzevii, E28, 48 h
Trichosporon asahii [12] = assay: Antifungal activity against Trichosporon asahii 1188 after 24 hrs by broth microdilution assay; settings: Trichosporon asahii, 1188, 24 h
Aspergillus fumigatus [13] = assay: Antifungal activity against Aspergillus fumigatus 231 after 24 hrs by broth microdilution assay; settings: Aspergillus fumigatus, 231, 24 h
Trichosporon asahii [14] = assay: Antifungal activity against Trichosporon asahii 1188 after 48 hrs by broth microdilution assay; settings: Trichosporon asahii, 1188, 48 h
Aspergillus fumigatus [15] = assay: Antifungal activity against Aspergillus fumigatus 231 after 48 hrs by broth microdilution assay; settings: Aspergillus fumigatus, 231, 48 h
Nakaseomyces glabratus [16] = assay: Antifungal activity against Candida glabrata 20/I after 24 hrs by broth microdilution assay; settings: Nakaseomyces glabratus, 20/I, 24 h

Compound	MIC (Nakaseomyces glabratus [1]) [µM]	MIC [2] [µM]	MIC (Candida albicans [3]) [µM]	MIC (Pichia kudriavzevii [4]) [µM]	MIC (Lichtheimia corymbifera [5]) [µM]	MIC (Lichtheimia corymbifera [6]) [µM]	MIC (Candida tropicalis [7]) [µM]	MIC (Candida albicans [8]) [µM]	MIC [9] [µM]	MIC (Candida tropicalis [10]) [µM]	MIC (Pichia kudriavzevii [11]) [µM]	MIC (Trichosporon asahii [12]) [µM]	MIC (Aspergillus fumigatus [13]) [µM]	MIC (Trichosporon asahii [14]) [µM]	MIC (Aspergillus fumigatus [15]) [µM]	MIC (Nakaseomyces glabratus [16]) [µM]
Oc1ccccc1C(=S)NCc1ccc(Cl)c(Cl)c1	31.2 (≈ 9.76 µg/mL)	15.6 (≈ 4.88 µg/mL)	31.2 (≈ 9.76 µg/mL)	15.6 (≈ 4.88 µg/mL)	7.81 (≈ 2.44 µg/mL)	15.6 (≈ 4.88 µg/mL)	31.2 (≈ 9.76 µg/mL)	15.6 (≈ 4.88 µg/mL)	7.81 (≈ 2.44 µg/mL)	31.2 (≈ 9.76 µg/mL)	31.2 (≈ 9.76 µg/mL)	15.6 (≈ 4.88 µg/mL)	15.6 (≈ 4.88 µg/mL)	15.6 (≈ 4.88 µg/mL)	31.2 (≈ 9.76 µg/mL)	31.2 (≈ 9.76 µg/mL)
OC(Cn1cncn1)(Cn1cncn1)c1ccc(F)cc1F [FLUCONAZOLE]	> 50	26 (≈ 7.96 µg/mL)	2 (≈ 0.613 µg/mL)	> 50	> 50	> 50	3 (≈ 0.919 µg/mL)	1 (≈ 0.306 µg/mL)	17 (≈ 5.21 µg/mL)	5 (≈ 1.53 µg/mL)	> 50	4 (≈ 1.23 µg/mL)	> 50	9 (≈ 2.76 µg/mL)	> 50	22 (≈ 6.74 µg/mL)
Cc1cccc(CNC(=S)c2ccccc2O)c1	250 (≈ 64.3 µg/mL)	15.6 (≈ 4.02 µg/mL)	250 (≈ 64.3 µg/mL)	125 (≈ 32.2 µg/mL)	62.5 (≈ 16.1 µg/mL)	15.6 (≈ 4.02 µg/mL)	125 (≈ 32.2 µg/mL)	125 (≈ 32.2 µg/mL)	15.6 (≈ 4.02 µg/mL)	250 (≈ 64.3 µg/mL)	250 (≈ 64.3 µg/mL)	31.2 (≈ 8.04 µg/mL)	62.5 (≈ 16.1 µg/mL)	62.5 (≈ 16.1 µg/mL)	62.5 (≈ 16.1 µg/mL)	125 (≈ 32.2 µg/mL)
COc1ccc(C(=S)NCc2ccccc2)c(O)c1	500 (≈ 137 µg/mL)	62.5 (≈ 17.1 µg/mL)	250 (≈ 68.3 µg/mL)	250 (≈ 68.3 µg/mL)	62.5 (≈ 17.1 µg/mL)	250 (≈ 68.3 µg/mL)	250 (≈ 68.3 µg/mL)	62.5 (≈ 17.1 µg/mL)	62.5 (≈ 17.1 µg/mL)	250 (≈ 68.3 µg/mL)	250 (≈ 68.3 µg/mL)	250 (≈ 68.3 µg/mL)	250 (≈ 68.3 µg/mL)	250 (≈ 68.3 µg/mL)	500 (≈ 137 µg/mL)	500 (≈ 137 µg/mL)
Cc1cccc(C(=S)NCc2ccc(Cl)cc2)c1O	> 500	15.6 (≈ 4.56 µg/mL)	125 (≈ 36.5 µg/mL)	> 500	31.2 (≈ 9.12 µg/mL)	31.2 (≈ 9.12 µg/mL)	125 (≈ 36.5 µg/mL)	62.5 (≈ 18.2 µg/mL)	15.6 (≈ 4.56 µg/mL)	250 (≈ 73 µg/mL)	> 500	62.5 (≈ 18.2 µg/mL)	62.5 (≈ 18.2 µg/mL)	62.5 (≈ 18.2 µg/mL)	125 (≈ 36.5 µg/mL)	> 500
Cc1ccc(C(=S)NCc2ccccc2)c(O)c1	250 (≈ 64.3 µg/mL)	31.2 (≈ 8.04 µg/mL)	125 (≈ 32.2 µg/mL)	62.5 (≈ 16.1 µg/mL)	7.81 (≈ 2.01 µg/mL)	31.2 (≈ 8.04 µg/mL)	125 (≈ 32.2 µg/mL)	62.5 (≈ 16.1 µg/mL)	31.2 (≈ 8.04 µg/mL)	250 (≈ 64.3 µg/mL)	125 (≈ 32.2 µg/mL)	62.5 (≈ 16.1 µg/mL)	62.5 (≈ 16.1 µg/mL)	62.5 (≈ 16.1 µg/mL)	125 (≈ 32.2 µg/mL)	125 (≈ 32.2 µg/mL)
Oc1ccc(Br)cc1C(=S)NCc1cccc(Br)c1	31.2 (≈ 12.5 µg/mL)	1.95 (≈ 0.782 µg/mL)	31.2 (≈ 12.5 µg/mL)	3.9 (≈ 1.56 µg/mL)	3.9 (≈ 1.56 µg/mL)	3.9 (≈ 1.56 µg/mL)	15.6 (≈ 6.27 µg/mL)	15.6 (≈ 6.27 µg/mL)	1.95 (≈ 0.782 µg/mL)	62.5 (≈ 25.1 µg/mL)	7.81 (≈ 3.13 µg/mL)	15.6 (≈ 6.27 µg/mL)	7.81 (≈ 3.13 µg/mL)	31.2 (≈ 12.5 µg/mL)	15.6 (≈ 6.27 µg/mL)	7.81 (≈ 3.13 µg/mL)
